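How tested: cells in 96-well plates exposed to compound for 48 hours at five concentrations. At the GI50, growth is halved. TGI: concentration producing complete growth inhibition.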
Key:
Test in all cases: NCI-60 cell line screen, 48 h
786-0 renal = system: 786-0 renal
A498 renal = system: A498 renal
A549 NSCLC = system: A549 NSCLC
ACHN renal = system: ACHN renal
CAKI-1 renal = system: CAKI-1 renal
CCRF-CEM leukemia = system: CCRF-CEM leukemia
DLD-1 colon = system: DLD-1 colon
DMS 114 small cell lung = system: DMS 114 small cell lung
DMS 273 small cell lung = system: DMS 273 small cell lung
HCT-116 colon = system: HCT-116 colon
HCT-15 colon = system: HCT-15 colon
HOP-18 NSCLC = system: HOP-18 NSCLC
HOP-62 NSCLC = system: HOP-62 NSCLC
HOP-92 NSCLC = system: HOP-92 NSCLC
HT29 colon = system: HT29 colon
IGROV1 ovarian = system: IGROV1 ovarian
K-562 leukemia = system: K-562 leukemia
KM12 colon = system: KM12 colon
LOX IMVI melanoma = system: LOX IMVI melanoma
LXFL 529 NSCLC = system: LXFL 529 NSCLC
M14 melanoma = system: M14 melanoma
M19-MEL melanoma = system: M19-MEL melanoma
MALME-3M melanoma = system: MALME-3M melanoma
MOLT-4 leukemia = system: MOLT-4 leukemia
NCI-H226 lung = system: NCI-H226 lung
NCI-H23 lung = system: NCI-H23 lung
NCI-H460 lung = system: NCI-H460 lung
NCI-H522 lung = system: NCI-H522 lung
OVCAR-3 ovarian = system: OVCAR-3 ovarian
OVCAR-4 ovarian = system: OVCAR-4 ovarian
OVCAR-8 ovarian = system: OVCAR-8 ovarian
RPMI-8226 leukemia = system: RPMI-8226 leukemia
RXF 393 renal = system: RXF 393 renal
SF-268 CNS = system: SF-268 CNS
SF-295 CNS = system: SF-295 CNS
SF-539 CNS = system: SF-539 CNS
SK-MEL-2 melanoma = system: SK-MEL-2 melanoma
SK-MEL-28 melanoma = system: SK-MEL-28 melanoma
SK-MEL-5 melanoma = system: SK-MEL-5 melanoma
SK-OV-3 ovarian = system: SK-OV-3 ovarian
SN12C renal = system: SN12C renal
SNB-19 CNS = system: SNB-19 CNS
SNB-75 CNS = system: SNB-75 CNS
SNB-78 CNS = system: SNB-78 CNS
SW-620 colon = system: SW-620 colon
TK-10 renal = system: TK-10 renal
U251 CNS = system: U251 CNS
UACC-257 melanoma = system: UACC-257 melanoma
UACC-62 melanoma = system: UACC-62 melanoma
UO-31 renal = system: UO-31 renal
XF 498 CNS = system: XF 498 CNS
COLO 205 colon = system: COLO 205 colon
EKVX NSCLC = system: EKVX NSCLC
HCC-2998 colon = system: HCC-2998 colon
KM20L2 colon = system: KM20L2 colon
OVCAR-5 ovarian = system: OVCAR-5 ovarian
SR leukemia = system: SR leukemia

COc1cc2c(cc1OC)[Se]c1cc(OC)c(OC)cc1[Se]2
GI50 (786-0 renal): > 100 µM
TGI (786-0 renal): > 100 µM
GI50 (A498 renal): > 100 µM
TGI (A498 renal): > 100 µM
GI50 (A549 NSCLC): > 100 µM
TGI (A549 NSCLC): > 100 µM
GI50 (ACHN renal): > 100 µM
TGI (ACHN renal): > 100 µM
GI50 (CAKI-1 renal): > 100 µM
TGI (CAKI-1 renal): > 100 µM
GI50 (CCRF-CEM leukemia): > 100 µM
TGI (CCRF-CEM leukemia): > 100 µM
GI50 (DLD-1 colon): > 100 µM
TGI (DLD-1 colon): > 100 µM
GI50 (DMS 114 small cell lung): 4.77 µM
TGI (DMS 114 small cell lung): > 100 µM
TGI (DMS 273 small cell lung): > 100 µM
GI50 (HCT-116 colon): > 100 µM
TGI (HCT-116 colon): > 100 µM
TGI (HCT-15 colon): > 100 µM
TGI (HOP-18 NSCLC): > 100 µM
GI50 (HOP-62 NSCLC): > 100 µM
TGI (HOP-62 NSCLC): > 100 µM
TGI (HOP-92 NSCLC): > 100 µM
GI50 (HT29 colon): 4.32 µM
TGI (HT29 colon): > 100 µM
GI50 (IGROV1 ovarian): > 100 µM
TGI (IGROV1 ovarian): > 100 µM
GI50 (K-562 leukemia): 5.08 µM
TGI (K-562 leukemia): > 100 µM
GI50 (KM12 colon): 3.54 µM
TGI (KM12 colon): > 100 µM
TGI (LOX IMVI melanoma): > 100 µM
GI50 (LXFL 529 NSCLC): > 100 µM
TGI (LXFL 529 NSCLC): > 100 µM
GI50 (M14 melanoma): > 100 µM
TGI (M14 melanoma): > 100 µM
GI50 (M19-MEL melanoma): > 100 µM
TGI (M19-MEL melanoma): > 100 µM
GI50 (MALME-3M melanoma): > 100 µM
TGI (MALME-3M melanoma): > 100 µM
TGI (MOLT-4 leukemia): > 100 µM
GI50 (NCI-H226 lung): > 100 µM
TGI (NCI-H226 lung): > 100 µM
GI50 (NCI-H23 lung): > 100 µM
TGI (NCI-H23 lung): > 100 µM
GI50 (NCI-H460 lung): > 100 µM
TGI (NCI-H460 lung): > 100 µM
GI50 (NCI-H522 lung): > 100 µM
TGI (NCI-H522 lung): > 100 µM
GI50 (OVCAR-3 ovarian): > 100 µM
TGI (OVCAR-3 ovarian): > 100 µM
GI50 (OVCAR-4 ovarian): > 100 µM
TGI (OVCAR-4 ovarian): > 100 µM
GI50 (OVCAR-8 ovarian): > 100 µM
TGI (OVCAR-8 ovarian): > 100 µM
GI50 (RPMI-8226 leukemia): > 100 µM
TGI (RPMI-8226 leukemia): > 100 µM
TGI (RXF 393 renal): > 100 µM
GI50 (SF-268 CNS): > 100 µM
TGI (SF-268 CNS): > 100 µM
TGI (SF-295 CNS): > 100 µM
TGI (SF-539 CNS): > 100 µM
GI50 (SK-MEL-2 melanoma): > 100 µM
TGI (SK-MEL-2 melanoma): > 100 µM
GI50 (SK-MEL-28 melanoma): > 100 µM
TGI (SK-MEL-28 melanoma): > 100 µM
GI50 (SK-MEL-5 melanoma): > 100 µM
TGI (SK-MEL-5 melanoma): > 100 µM
GI50 (SK-OV-3 ovarian): > 100 µM
TGI (SK-OV-3 ovarian): > 100 µM
GI50 (SN12C renal): > 100 µM
TGI (SN12C renal): > 100 µM
GI50 (SNB-19 CNS): > 100 µM
TGI (SNB-19 CNS): > 100 µM
TGI (SNB-75 CNS): > 100 µM
GI50 (SNB-78 CNS): > 100 µM
TGI (SNB-78 CNS): > 100 µM
GI50 (SW-620 colon): > 100 µM
TGI (SW-620 colon): > 100 µM
GI50 (TK-10 renal): > 100 µM
TGI (TK-10 renal): > 100 µM
GI50 (U251 CNS): > 100 µM
TGI (U251 CNS): > 100 µM
GI50 (UACC-257 melanoma): > 100 µM
TGI (UACC-257 melanoma): > 100 µM
GI50 (UACC-62 melanoma): > 100 µM
TGI (UACC-62 melanoma): > 100 µM
GI50 (UO-31 renal): > 100 µM
TGI (UO-31 renal): > 100 µM
GI50 (XF 498 CNS): > 100 µM
TGI (XF 498 CNS): > 100 µM

O=C(c1ccccc1)c1nc2ccc(Cl)cc2c2c1Cc1ccccc1-2
TGI (786-0 renal): > 100 µM
TGI (A549 NSCLC): > 100 µM
TGI (ACHN renal): > 100 µM
TGI (CAKI-1 renal): > 100 µM
TGI (COLO 205 colon): > 100 µM
TGI (DLD-1 colon): > 100 µM
TGI (DMS 114 small cell lung): > 100 µM
TGI (DMS 273 small cell lung): > 100 µM
TGI (EKVX NSCLC): > 100 µM
TGI (HCC-2998 colon): > 100 µM
TGI (HCT-116 colon): > 100 µM
TGI (HCT-15 colon): > 100 µM
TGI (HOP-18 NSCLC): > 100 µM
TGI (HOP-62 NSCLC): > 100 µM
TGI (IGROV1 ovarian): > 100 µM
TGI (K-562 leukemia): > 100 µM
TGI (KM12 colon): > 100 µM
TGI (KM20L2 colon): > 100 µM
TGI (LOX IMVI melanoma): > 100 µM
TGI (LXFL 529 NSCLC): > 100 µM
TGI (M14 melanoma): > 100 µM
TGI (M19-MEL melanoma): > 100 µM
TGI (MALME-3M melanoma): > 100 µM
TGI (MOLT-4 leukemia): > 100 µM
TGI (NCI-H226 lung): > 100 µM
TGI (NCI-H23 lung): > 100 µM
TGI (NCI-H522 lung): > 100 µM
TGI (OVCAR-3 ovarian): > 100 µM
TGI (OVCAR-4 ovarian): > 100 µM
TGI (OVCAR-5 ovarian): > 100 µM
TGI (OVCAR-8 ovarian): > 100 µM
TGI (RPMI-8226 leukemia): > 100 µM
TGI (RXF 393 renal): > 100 µM
TGI (SF-268 CNS): > 100 µM
TGI (SF-295 CNS): > 100 µM
TGI (SF-539 CNS): > 100 µM
TGI (SK-MEL-2 melanoma): > 100 µM
TGI (SK-MEL-28 melanoma): > 100 µM
TGI (SK-MEL-5 melanoma): > 100 µM
TGI (SN12C renal): > 100 µM
TGI (SNB-19 CNS): > 100 µM
TGI (SNB-75 CNS): > 100 µM
TGI (SR leukemia): > 100 µM
TGI (SW-620 colon): > 100 µM
TGI (TK-10 renal): > 100 µM
TGI (U251 CNS): > 100 µM
TGI (UACC-257 melanoma): > 100 µM
TGI (UACC-62 melanoma): > 100 µM
TGI (UO-31 renal): > 100 µM
TGI (XF 498 CNS): > 100 µM

Source: PubChem BioAssay (NCI)
